Reference: publication PMC11267565, “Glutathione-Based Photoaffinity Probe Identifies Caffeine as a Positive Allosteric Modulator of the Calcium-Sensing Receptor” (ACS Chemical Biology, 2024)

Columns and labels:
[1] = target: T1, calcium-sensing receptor (CaSR) (Homo sapiens, UniProt P41180); assay: concentration-dependent competition with DAZ-G photo-conjugation in cells; assay type: cell-based; design: FLAG-CaSR
T1 sequence (P41180 20-1078): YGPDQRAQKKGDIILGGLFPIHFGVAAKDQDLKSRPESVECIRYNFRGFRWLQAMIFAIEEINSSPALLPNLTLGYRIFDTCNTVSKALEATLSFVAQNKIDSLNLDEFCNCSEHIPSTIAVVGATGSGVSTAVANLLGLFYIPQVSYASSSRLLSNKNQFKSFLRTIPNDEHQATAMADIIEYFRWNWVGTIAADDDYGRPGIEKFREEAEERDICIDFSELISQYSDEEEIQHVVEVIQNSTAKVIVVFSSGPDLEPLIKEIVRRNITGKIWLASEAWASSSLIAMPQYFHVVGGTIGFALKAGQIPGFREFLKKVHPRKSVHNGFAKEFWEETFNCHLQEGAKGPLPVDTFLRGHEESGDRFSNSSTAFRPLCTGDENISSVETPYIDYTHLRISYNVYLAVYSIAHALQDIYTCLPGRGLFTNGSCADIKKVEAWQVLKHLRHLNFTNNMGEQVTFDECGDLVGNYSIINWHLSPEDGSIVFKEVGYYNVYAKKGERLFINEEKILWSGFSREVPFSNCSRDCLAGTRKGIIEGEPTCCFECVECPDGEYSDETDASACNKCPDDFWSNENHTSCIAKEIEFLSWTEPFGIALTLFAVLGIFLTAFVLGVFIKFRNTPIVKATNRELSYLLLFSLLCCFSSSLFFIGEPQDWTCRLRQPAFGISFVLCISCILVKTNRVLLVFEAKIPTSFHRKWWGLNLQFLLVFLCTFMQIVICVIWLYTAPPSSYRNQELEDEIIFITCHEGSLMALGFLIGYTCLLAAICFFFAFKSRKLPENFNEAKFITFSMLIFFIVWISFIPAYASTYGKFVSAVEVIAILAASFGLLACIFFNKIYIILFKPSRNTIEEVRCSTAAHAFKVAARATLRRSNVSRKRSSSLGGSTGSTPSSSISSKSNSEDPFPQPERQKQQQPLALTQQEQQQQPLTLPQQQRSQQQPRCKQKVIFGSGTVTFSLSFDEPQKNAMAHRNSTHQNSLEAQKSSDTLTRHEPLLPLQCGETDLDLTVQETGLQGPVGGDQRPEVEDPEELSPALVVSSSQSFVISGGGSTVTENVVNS

[2] = target: T1, calcium-sensing receptor (CaSR); assay: Cal-520 Ca2+ flux in HEK293-CaSR cells (EC50); competition with DAZ-G photo-conjugation; E837A and S170A mutants; assay type: cell-based

SMILES	concentration-dependent competition with DAZ-G photo-conjugation in cells [1]	EC50 [2] [µM]
N[C@@H](Cc1ccccc1)C(=O)O [L-Phe]	L-Phe, a prototype ligand for ABS, induced concentration-dependent competition to DAZ-G	
Cn1c(=O)c2c(ncn2C)n(C)c1=O [caffeine]		3.35
